Our source for the IC50 and CC50 values is ChEMBL document CHEMBL5257051, “Integrasone Derivatives Isolated from Lepteutypa sp. KT4162 and Their Anti-HIV-1 Integrase Activity” (J Nat Prod, 2023).

Data set [1] in a line: Inhibition of HIV-1 Integrase transfected in human HEK293T cells measured after 48 hrs by bright-glo luciferase assay. The format is cell-based. Conditions: Human immunodeficiency virus 1, HEK-293T.
Data set [2] is described as follows: Cytotoxicity against human HEK293T cells assessed as cell growth inhibition measured for 30 mins by WST assay. The data set is classed as toxicity, cell-based, HEK-293T.
Data set [3] in a line: Inhibition of HIV-1 Integrase transfected in human HEK293T cells measured after 48 hrs by luminometer analysis. The format is cell-based, Human immunodeficiency virus 1.
Data set [4] can be described thus: Cytotoxicity against human HEK293T cells assessed as cell growth inhibition by MTT assay. The format is toxicity, cell-based, HEK-293T. In general terms: Tetrazolium dyes change colour on reduction, which living cells bring about.

Molecules are shown by their SMILES. A value given as a limit tells only on which side of the number the result lay.

As usually defined, the IC50 is the concentration at which inhibition is half-maximal. A lower IC50 goes with higher potency. For orientation: CC50 means the concentration giving 50% cytotoxicity. In the case of `O=C(CCCCCCCCO)C[C@H]1OCC2=C1[C@@H](O)[C@@H]1O[C@@H]1[C@@H]2O`, inhibition in data set [1] was half-maximal at 112 µM (IC50). In data set [2], the half-maximal cytotoxic concentration (CC50) at 0.5 h is more than 250 µM.

As to `CCCCCCCCC(=O)C[C@@H]1OC(=O)C2=C1[C@@H](O)[C@@H]1O[C@@H]1[C@@H]2O`, the IC50 in data set [1] worked out at 2.5 µM. Moreover, the CC50 at 0.5 h in data set [2] is more than 250 µM.

As to `CCCCCCCCC(=O)C[C@H]1OC(=O)C2=C1[C@@H](O)[C@@H]1O[C@@H]1[C@@H]2O`, in data set [1], 56 µM corresponded to half-maximal inhibition (IC50). The CC50 at 0.5 h in data set [2] was more than 250 µM.

For the molecule `CCCCCCCCC(=O)Cc1occ2c1[C@@H](O)[C@@H]1O[C@@H]1[C@@H]2O`, the IC50 in data set [1] was 40 µM. The CC50 at 0.5 h in data set [2] is more than 250 µM.

In data set [1], `CCCCCCCCC(=O)C[C@H]1OCC2=C1[C@@H](O)[C@@H]1O[C@@H]1[C@@H]2O` registered a half-inhibitory concentration (IC50) of 95 µM. Moreover, the CC50 at 0.5 h in data set [2] was more than 250 µM.

Take `COc1cc2c(cc1Cc1cccc(Cl)c1F)c(=O)c(C(=O)O)cn2[C@H](CO)C(C)C` [ELVITEGRAVIR]: the IC50 in data set [3] turned out to be 3.8 µM. In addition, the CC50 in data set [4] is more than 250 µM.
